# In paper PMC3628851, “Combined Approaches for Drug Design Points the Way to Novel Proline Racemase Inhibitor Candidates to Fight Chagas’ Disease” (PLoS ONE, 2013):
# Read-outs that look alike come from different tables or passages of the source.
# How the values were obtained:
# [1] = target: T1, TcPRAC (Trypanosoma cruzi, UniProt Q4DA80); test: TcPRAC inhibition by PYC derivatives (polarimetry and DAAO methodologies); type: biochemical
# T1 construct: His tag (inferred from nickel IMAC purification); made in house; host or cells: E. coli BL21 (DE3)
# Method: Recombinant Trypanosoma cruzi proline racemase (EC 5.1.1.4) was produced in E. Coli BL21 (DE3) (Invitrogen) and purified by immobilized metal affinity chromatography on nickel columns, as previously described.
# (§1) Optimum Proline racemization conditions for TcPRAC were determined using 10–300 mM L-Proline in 0.2 M NaOAc over a range of pH values, as described and L- to D- proline conversion took place in 1.5 mL reaction. Concentrations of D-proline formed were determined by optical rotation of the solution at 365 nm in a 10 cm optical path cell, thermostated at 37°C, using a polarimeter (Perkin Elmer 241 MC). Assays were also performed into microtiter plates (100 µL), as follows: dilutions of L- Proline (40 mM to 2.5 mM) in 0.2 M sodium acetate pH 6.0 and 0.25 mM TcPRAC were loaded into microtiter plate wells with 0–20 µM PYC or similar concentrations of potential inhibitors. Controls omitted TcPRAC and/or PYC. The microtiter plates were incubated for 30 minutes at 37°C. The enzyme was inactivated by heating in a microwave oven for 15 s at 900 Watts and shifting the pH to 8.3 by adding 6.8 µL of 0.235 M sodium pyrophosphate. The presence of D-Proline was tested in 50 µL from each well using the D-amino oxidase - Horse Radish Peroxidase/OPD combined test. Interference caused by the possible reactivity of amino acid L-forms with DAAOx was taken into account by using standards consisting of serial dilutions of an equimolar mixture of D- and L-proline ranging from 0 to 10 mM (10 mM total). For instance, DAAOx reacts with L-Proline 300 times slower than with D-Proline. Optical densities, OD490 nm – OD650 nm were recorded on a microtiter plate reader (Molecular Devices), and the signals from the blank control wells were deducted.
# [2] = target: T1, TcPRAC; test: DAAOx test of D-proline formed by TcPRAC; type: biochemical; conditions: for D-Proline formed: inhibitor 10 µM, without inhibitor 5.0 µM
# Method: as §1
# (§2) Only two novel TcPRAC inhibitors, both provided by the CN, were identified among these (Figure 4B).
# [3] = target: T1, TcPRAC; test: Inhibition of TcPRAC proline racemization measured by polarimetry; type: biochemical
# Method: as §1, §2
# [4] = target: T1, TcPRAC; test: Kinetics of D-proline formation with time / enzyme inactivation (polarimetry); type: biochemical; conditions: for mode of TcPRAC inhibition: pre-incubation 5 or 10 min, 15 fold dilution, 300 mM L-proline
# Method: Kinetic reaction assays using fixed amounts of dimeric PRAC (22 µg –0.24 µM final), 40 mM substrate and 10 µM of the identified inhibitors were performed to characterize their effect on enzymatic activity (Figure 5). […] To further characterize the mode of action of this two molecules, the enzyme was pre-incubated (concentration 22 µg − 3,6 µM) with different concentration of inhibitor, for 5 or 10 min to determine inhibition dependence to inhibitor concentration and pre-incubation time. Then, the reaction mixture was diluted 15 fold and residual activity was determined in an excess of substrate (300 mM of L- proline).
# Figure 5 Kinetics of D-proline formation with time in the presence or absence of TcPRAC inhibitors. (A) Concentrations of D-proline formed were determined by polarimetry in reaction assays containing 0.15 µM of TcPRAC and 40 mM L proline (see Material and Methods).
# [5] = tested on: T. cruzi; test: Vero cell infection by T. cruzi trypomastigotes, endocytic index (Giemsa count); type: cell-based, Trypanosoma cruzi; conditions: for Endocytic index (EI): added with parasites, 17 h, Vero cells
# Method: Cell culture-derived trypomastigotes from T. cruzi CL Brener (clone F11-F5) were isolated from the supernatant of bulk cultures of green monkey Vero kidney cells previously infected with bloodstream trypomastigotes. Known numbers of parasites, adherent infected cells and uninfected cell controls were lysed with 0.1 mL of 0.05% Tween 20 solution in sterile distilled water and the lysates were frozen. Vero cells were seeded in LabTek slides (5×10^4 cells/well) in RPMI 1640 medium/5% FCS and kept at 37°C, 5% CO2. […] To test the effect of the inhibitors on the parasite intracellular cycle, […] different dilutions of the compounds. All cultures were then washed with PBS, fixed and stained with Giemsa. The number of infected host cells was recorded along with the number of parasites per infected cell in at least 400 host cells, in duplicate experiments. Results were expressed as the endocytic index (EI) resulting from the product of the percentage of infected cells and the mean number of parasites per infected cell. Control cultures were incubated in medium alone or with equal DMSO concentrations.
# (§3) To verify the potential of these new PRAC inhibitors as lead compounds in drug design strategies, we compared their effects on cultures of host Vero cells infected or not with T. cruzi, with that of PYC. […] To determine whether the treatment of these cultures with the new compounds would indeed affect intracellular TcPRAC and as such interfere with parasite intracellular fate cells were then washed after parasite uptake and the same ligand concentrations as above (10 µM − 30 µM) were added to the cultures in fresh medium. The degree of infection was determined over 48 hours by capture ELISA. As expected, the number of parasites per well decreased in a dose-dependent manner (Figure 7). In vitro and in vivo experiments using mutant parasites that carry the luciferase gene are now in progress to support those data.
# [6] = tested on: T. cruzi; test: Vero cell infection by T. cruzi, total parasite numbers/culture by capture ELISA; type: cell-based, Trypanosoma cruzi
# Method: Cell culture-derived trypomastigotes from T. cruzi CL Brener (clone F11-F5) were isolated from the supernatant of bulk cultures of green monkey Vero kidney cells previously infected with bloodstream trypomastigotes. Known numbers of parasites, adherent infected cells and uninfected cell controls were lysed with 0.1 mL of 0.05% Tween 20 solution in sterile distilled water and the lysates were frozen. Vero cells were seeded in LabTek slides (5×10^4 cells/well) in RPMI 1640 medium/5% FCS and kept at 37°C, 5% CO2. […] To test the effect of the inhibitors on the parasite intracellular cycle, cultures were infected at 37°C for 17 hours without inhibitors, washed three times to eliminate extracellular parasites then incubated for up to 48 hours with fresh medium containing different dilutions of the compounds. All cultures were then washed with PBS, fixed and stained with Giemsa. The number of infected host cells was recorded along with the number of parasites per infected cell in at least 400 host cells, in duplicate experiments. Results were expressed as the endocytic index (EI) resulting from the product of the percentage of infected cells and the mean number of parasites per infected cell. Control cultures were incubated in medium alone or with equal DMSO concentrations.
# Flat-bottomed microtiter plates (Nunc, Denmark) were coated overnight at 4°C with rabbit anti-T. cruzi polyclonal antibodies and further blocked for 4 h at room temperature (RT) with 1% BSA, 0.05% Tween 20 in PBS. After washings, lysate samples from infected or control Vero cultures, or from T. cruzi, were then added and incubated at 4°C for 18 h. Plates were washed with PBS-Tween and incubated for 2 h at RT with polyclonal mouse anti-T. cruzi chronic serum, washed again and incubated for 1 h at RT with HRP-secondary antibodies. […] Optical densities were determined in a spectrophotometer at 450 nm and 650 nm, and analyzed by Softmax Pro software.
# as §3
# Total parasite numbers/culture were estimated by capture ELISA.
# [7] = tested on: non infected Vero cells; test: Viability of non infected Vero cells; type: cell-based, green monkey; conditions: 3, 10 and 30 µM
# Method: Cell culture-derived trypomastigotes from T. cruzi CL Brener (clone F11-F5) were isolated from the supernatant of bulk cultures of green monkey Vero kidney cells previously infected with bloodstream trypomastigotes. Known numbers of parasites, adherent infected cells and uninfected cell controls were lysed with 0.1 mL of 0.05% Tween 20 solution in sterile distilled water and the lysates were frozen. Vero cells were seeded in LabTek slides (5×10^4 cells/well) in RPMI 1640 medium/5% FCS and kept at 37°C, 5% CO2. […] The number of infected host cells was recorded along with the number of parasites per infected cell in at least 400 host cells, in duplicate experiments. Results were expressed as the endocytic index (EI) resulting from the product of the percentage of infected cells and the mean number of parasites per infected cell. […]
# To verify the potential of these new PRAC inhibitors as lead compounds in drug design strategies, we compared their effects on cultures of host Vero cells infected or not with T. cruzi, with that of PYC. […] The degree of infection was determined over 48 hours by capture ELISA. […]
# [8] = Solubility (qualitative); type: physicochemical; conditions: for Solubility: solvent in which the compound is soluble, qualitative
# [9] = target: T1, TcPRAC; conditions: cited from earlier work
# [10] = read-out: Racemization Inhibition
# [11] = 10 µM inhibitor, 40 mM substrate, 0.24 µM PRAC
# [12] = classical Michaelian approaches
# T1 sequence (Q4DA80 32-423): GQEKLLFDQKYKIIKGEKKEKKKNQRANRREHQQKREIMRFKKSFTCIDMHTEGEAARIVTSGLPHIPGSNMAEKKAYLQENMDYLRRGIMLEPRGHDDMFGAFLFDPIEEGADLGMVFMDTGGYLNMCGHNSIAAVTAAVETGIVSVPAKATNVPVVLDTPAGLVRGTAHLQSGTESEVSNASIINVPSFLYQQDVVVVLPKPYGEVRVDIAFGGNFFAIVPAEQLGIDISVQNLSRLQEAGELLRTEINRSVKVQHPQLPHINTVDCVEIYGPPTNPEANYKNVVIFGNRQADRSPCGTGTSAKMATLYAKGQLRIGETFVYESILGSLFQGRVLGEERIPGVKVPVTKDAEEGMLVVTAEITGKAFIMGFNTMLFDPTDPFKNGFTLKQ
smiles,measurement,setting,value
"O=C(O)/C=C/C(=O)CBr [Br-OxoPA, (E)-5-bromo-4-oxopent-2-enoic acid]",more potent than PYC in inhibiting TcPRAC,[1],4 fold
same,inhibition of conversion of L- into D-proline relative to PYC,"[2]; equivalent concentrations, DAAOx test",more than 5 times
same,D-Proline formed,[2],<0.3 µM
same,IC50,[3],2.5 µM
same,inhibition at 2.5 µM,[3]; [10],50%
same,inhibition at 10 µM,[3]; [10],81.3%
same,time at which plateau of enzyme inactivation is reached,[4]; [11],250 s
same,mode of TcPRAC inhibition,[4],irreversible
same,lower dose than PYC necessary to obtain the same endocytic index,[5]; 1000 µM PYC equivalent to 10 µM OxoPA or 30 µM Br-OxoPA,30 fold
same,Endocytic index (EI),[5]; inhibitor 3 µM,78
same,Endocytic index (EI),[5]; inhibitor 10 µM,42
same,Endocytic index (EI),[5]; inhibitor 30 µM,29
same,"percentage in Figure 7 (effect on total parasite numbers/culture, capture ELISA)",[6]; 5 µM,24%
same,"percentage in Figure 7 (effect on total parasite numbers/culture, capture ELISA)",[6]; 10 µM,34%
same,"percentage in Figure 7 (effect on total parasite numbers/culture, capture ELISA)",[6]; 30 µM,39%
same,viability of non infected Vero cells,[7],neither OxoPA nor Br-OxoPA considerably affected the viability
same,solubility in water,[8],soluble
"O=C(O)c1n[nH]cc1Br [Br-PZC, 4-bromo-1H-pyrazole-3-carboxylic acid]",Ki,[1]; [12],1000 µM
same,Ki,[1]; values in text,~1000 µM
same,Solubility,[8],Water
"O=C(O)c1n[nH]cc1Cl [Cl-PZC, 4-chloro-1H-pyrazole-3-carboxylic acid]",Ki,[1]; [12],300 µM
same,Ki,[1]; values in text,~300 µM
same,Solubility,[8],Water
"CCc1c[nH]nc1C(=O)O [Et-PZC, 4-Ethyl-pyrazole-3-carboxylic acid]",Ki,[1]; [12],> 2000 µM
same,Solubility,[8],Water
"Cc1[nH]nc(C(=O)O)c1Cl [M-Cl-PZC, 4-chloro-5-methyl-1H-pyrazole-3-carboxylic acid]",Ki,[1]; [12],> 2000 µM
same,Solubility,[8],Ethanol
"CC(=O)/C=C/C(=O)O [OxoPA, (E)-4-oxopent-2-enoic acid]",more potent than PYC in inhibiting TcPRAC,[1],2 fold
same,D-Proline formed,[2],<0.3 µM
same,IC50,[3],3 µM
same,inhibition at 3 µM,[3]; [10],50%
same,time at which plateau of enzyme inactivation is reached,[4]; [11],350 s
same,mode of TcPRAC inhibition,[4],irreversible
same,"percentage in Figure 7 (effect on total parasite numbers/culture, capture ELISA)",[6]; 5 µM,9%
same,"percentage in Figure 7 (effect on total parasite numbers/culture, capture ELISA)",[6]; 10 µM,14%
same,"percentage in Figure 7 (effect on total parasite numbers/culture, capture ELISA)",[6]; 30 µM,15%
same,viability of non infected Vero cells,[7],neither OxoPA nor Br-OxoPA considerably affected the viability
"O=C(O)c1ccc[nH]1 [PYC, 2-pyrrolecarboxylic acid, reference compound]",Ki,[1]; [12],6 to 10 µM
same,D-Proline formed,[2],2.4 µM (IC50)
same,IC50,[3],10 µM
same,inhibition at 10 µM,[3]; [10],56.9%
same,"racemization speed of L-proline, % of original speed",[4]; [11],~37%
same,Endocytic index (EI),[5]; inhibitor 10 µM,44
same,Endocytic index (EI),[5]; inhibitor 100 µM,30
same,Endocytic index (EI),[5]; inhibitor 1000 µM,25
same,"percentage in Figure 7 (effect on total parasite numbers/culture, capture ELISA)",[6]; 10 µM,4%
same,"percentage in Figure 7 (effect on total parasite numbers/culture, capture ELISA)",[6]; 100 µM,2%
same,"percentage in Figure 7 (effect on total parasite numbers/culture, capture ELISA)",[6]; 1 mM,0%
same,solubility in water,[8],water-insoluble
same,Solubility,[8],Ethanol
same,mode of TcPRAC inhibition,[9],classical competitive and reversible
"O=C(O)c1cc[nH]n1 [PZC, 1H-pyrazole-3-carboxylic acid]",Ki,[1]; [12],> 2000 µM
same,Solubility,[8],Water
